Measured values published in patent publication US20230322761A1, “DEGRADATION OF BRUTON'S TYROSINE KINASE (BTK) BY CONJUGATION OF BTK INHIBITORS WITH E3 LIGASE LIGAND AND METHODS OF USE” (BEIGENE, LTD., priority 2020, published 2023).

Molecular target: T1, BTK (Homo sapiens, UniProt Q06187)
T1 construct: endogenous in cells; host or cells: TMD-8 cells
Experiment: BTK degradation in TMD-8 cells, HTRF assay after 6 h treatment
Type: cell-based
Details: for DC50: IC50 (DC50) of BTK degradation; for Dmax: TMD8, maximum percentage of inhibition (degradation)
In short: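 Remaining BTK was quantified by HTRF in lysates of TMD-8 cells after 6 h exposure to an 8-point, 6-fold compound series (500× stocks in DMSO starting at 1 mM; 0.2% DMSO). Lysis 30 min, antibodies overnight at room temperature, ratio read at 665/620 nm; DC50 fitted with a four-parameter logistic equation.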

T1 sequence (Q06187 whole entry): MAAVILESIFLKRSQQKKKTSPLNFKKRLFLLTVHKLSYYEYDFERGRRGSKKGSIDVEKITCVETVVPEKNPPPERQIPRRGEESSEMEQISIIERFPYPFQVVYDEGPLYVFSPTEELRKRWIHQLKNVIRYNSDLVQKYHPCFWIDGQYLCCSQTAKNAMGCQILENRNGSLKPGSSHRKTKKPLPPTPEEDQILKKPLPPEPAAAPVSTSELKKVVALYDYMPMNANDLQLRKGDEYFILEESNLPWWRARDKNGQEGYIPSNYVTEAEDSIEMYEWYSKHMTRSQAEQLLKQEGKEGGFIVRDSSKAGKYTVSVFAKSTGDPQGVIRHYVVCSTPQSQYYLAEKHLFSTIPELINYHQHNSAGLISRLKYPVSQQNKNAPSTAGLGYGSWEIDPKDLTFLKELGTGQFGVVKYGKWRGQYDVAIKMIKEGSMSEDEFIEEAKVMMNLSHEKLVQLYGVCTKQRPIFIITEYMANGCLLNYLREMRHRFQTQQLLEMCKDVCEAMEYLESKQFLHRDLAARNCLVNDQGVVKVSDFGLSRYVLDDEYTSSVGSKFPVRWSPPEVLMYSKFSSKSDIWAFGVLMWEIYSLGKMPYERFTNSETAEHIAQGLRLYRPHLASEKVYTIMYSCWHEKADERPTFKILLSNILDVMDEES

DC50 [nM]	Dmax [%]	SMILES
3.52		COc1cc(N2CCC(=O)NC2=O)ccc1N1CCC(CN2CCN(c3ccc(-c4cnc5[nH]nc(-c6ccc([C@@H](C)NC(=O)c7noc(C(C)(C)C)n7)c(C)c6)c5c4)cc3)CC2)CC1 [Example 171, (R)-5-(tert-butyl)-N-(1-(4-(5-(4-(4-((1-(4-(2,4-dioxotetrahydropyrimidin-1(2H)-yl)-2-methoxyphenyl)piperidin-4-yl)methyl)piperazin-1-yl)phenyl)-1H-pyrazolo[3,4-b]pyridin-3-yl)-2-methylphenyl)ethyl)-1,2,4-oxadiazole-3-carboxamide]
9.72		Cc1cc(-c2n[nH]c3ncc(-c4ccc(N5CCN(CC6CCN(c7ccc(N8CCC(=O)NC8=O)cc7)CC6)CC5)c(C)c4)cc23)ccc1[C@@H](C)NC(=O)c1noc(C(C)(C)C)n1 [Example 102, (R)-5-(tert-butyl)-N-(1-(4-(5-(4-(4-((1-(4-(2,4-dioxotetrahydropyrimidin-1(2H)-yl)phenyl)piperidin-4-yl)methyl)piperazin-1-yl)-3-methylphenyl)-1H-pyrazolo[3,4-b]pyridin-3-yl)-2-methylphenyl)ethyl)-1,2,4-oxadiazole-3-carboxamide]
6.38	94.9	CC(C)(C)c1nc(C(=O)NCc2ccc(-c3n[nH]c4ncc(-c5ccc(C6CCN(CC7CCN(c8ccc(N9CCC(=O)NC9=O)cc8)CC7)CC6)cc5)cc34)cc2F)no1 [Example 15, 5-(tert-butyl)-N-(4-(5-(4-(1-((1-(4-(2,4-dioxotetrahydropyrimidin-1(2H)-yl)phenyl)piperidin-4-yl)methyl)piperidin-4-yl)phenyl)-1H-pyrazolo[3,4-b]pyridin-3-yl)-2-fluorobenzyl)-1,2,4-oxadiazole-3-carboxamide]
5.98	94.1	CC(C)(C)c1noc(C(=O)NCc2ccc(-c3n[nH]c4ncc(-c5ccc(N6CCN(CC7CCN(c8ccc(N9CCC(=O)NC9=O)cc8)CC7)CC6)cc5)cc34)cc2F)n1 [Example 11, 3-(tert-butyl)-N-(4-(5-(4-(4-((1-(4-(2,4-dioxotetrahydropyrimidin-1(2H)-yl)phenyl)piperidin-4-yl)methyl)piperazin-1-yl)phenyl)-1H-pyrazolo[3,4-b]pyridin-3-yl)-2-fluorobenzyl)-1,2,4-oxadiazole-5-carboxamide]
2.14		Cc1cc(-c2n[nH]c3ncc(-c4ccc(N5CCN(CCc6ccc(C7CCC(=O)NC7=O)c(C)n6)CC5)cc4)cc23)ccc1[C@@H](C)NC(=O)c1nc(C(C)(C)C)no1 (stereo partly drawn) [Example 156, 3-(tert-butyl)-N-((1R)-1-(4-(5-(4-(4-(2-(5-(2,6-dioxopiperidin-3-yl)-6-methylpyridin-2-yl)ethyl)piperazin-1-yl)phenyl)-1H-pyrazolo[3,4-b]pyridin-3-yl)-2-methylphenyl)ethyl)-1,2,4-oxadiazole-5-carboxamide]
16.9	92.8	Cc1c(-c2n[nH]c3ncc(-c4ccc(C5CCN(CCc6ccc(C7CCC(=O)NC7=O)cc6)CC5)cc4)cc23)ccc(CNC(=O)c2nc(C(C)(C)C)no2)c1F (stereo not shown) [Example 19, 3-(tert-butyl)-N-(4-(5-(4-(1-(4-(2,6-dioxopiperidin-3-yl)phenethyl)piperidin-4-yl)phenyl)-1H-pyrazolo[3,4-b]pyridin-3-yl)-2-fluoro-3-methylbenzyl)-1,2,4-oxadiazole-5-carboxamide]
3.55		Cc1cc(-c2n[nH]c3ncc(-c4ccc(C5CCN(CC6CCN(c7ccc(N8CCC(=O)NC8=O)c(C)c7)CC6)CC5)nc4)cc23)ccc1CNC(=O)c1nc(C(C)(C)C)no1 [Example 105, 3-(tert-butyl)-N-(4-(5-(6-(1-((1-(4-(2,4-dioxotetrahydropyrimidin-1(2H)-yl)-3-methylphenyl)piperidin-4-yl)methyl)piperidin-4-yl)pyridin-3-yl)-1H-pyrazolo[3,4-b]pyridin-3-yl)-2-methylbenzyl)-1,2,4-oxadiazole-5-carboxamide]
20.8		Cc1cc(-c2n[nH]c3ncc(-c4ccc(N5CCN(CC6CCN(c7ccc(N8CCC(=O)NC8=O)c(C)c7)CC6)CC5)cc4)cc23)ccc1[C@@H](C)NC(=O)c1cc(C(C)(C)C)on1 [Example 172, (R)-5-(tert-butyl)-N-(1-(4-(5-(4-(4-((1-(4-(2,4-dioxotetrahydropyrimidin-1(2H)-yl)-3-methylphenyl)piperidin-4-yl)methyl)piperazin-1-yl)phenyl)-1H-pyrazolo[3,4-b]pyridin-3-yl)-2-methylphenyl)ethyl)isoxazole-3-carboxamide]
17		Cc1cc(-c2n[nH]c3ncc(-c4ccc(N5CCN(CCc6ccc([C@H]7CCC(=O)NC7=O)c(F)c6)CC5)cc4)cc23)ccc1[C@@H](C)NC(=O)c1noc(C(C)(C)C)n1 [Example 113, 5-(tert-butyl)-N—((R)-1-(4-(5-(4-(4-(4-((R)-2,6-dioxopiperidin-3-yl)-3-fluorophenethyl)piperazin-1-yl)phenyl)-1H-pyrazolo[3,4-b]pyridin-3-yl)-2-methylphenyl)ethyl)-1,2,4-oxadiazole-3-carboxamide]
16.1		Cc1cc(-c2n[nH]c3ncc(-c4ccc(C5CCN(CC6CCN(c7ccc(N8CCC(=O)NC8=O)cc7)CC6)CC5)cc4)cc23)c(F)cc1CNC(=O)c1noc(C(C)(C)C)n1 [Example 222, 5-(tert-butyl)-N-(4-(5-(4-(1-((1-(4-(2,4-dioxotetrahydropyrimidin-1(2H)-yl)phenyl)piperidin-4-yl)methyl)piperidin-4-yl)phenyl)-1H-pyrazolo[3,4-b]pyridin-3-yl)-5-fluoro-2-methylbenzyl)-1,2,4-oxadiazole-3-carboxamide]
18.8		Cc1cc(-c2n[nH]c3ncc(-c4ccc(N5CCN(CCn6cc(N7CCC(=O)NC7=O)cn6)CC5)cc4)cc23)ccc1[C@@H](C)NC(=O)c1noc(C(C)(C)C)n1 [Example 143, (R)-5-(tert-butyl)-N-(1-(4-(5-(4-(4-(2-(4-(2,4-dioxotetrahydropyrimidin-1(2H)-yl)-1H-pyrazol-1-yl)ethyl)piperazin-1-yl)phenyl)-1H-pyrazolo[3,4-b]pyridin-3-yl)-2-methylphenyl)ethyl)-1,2,4-oxadiazole-3-carboxamide]
10.8	97.1	CC(C)(C)c1noc(C(=O)NCc2ccc(-c3n[nH]c4ncc(-c5ccc(C6CCN(CC7CCN(c8ccc(N9CCC(=O)NC9=O)cc8)CC7)CC6)cc5)cc34)cc2F)n1 [Example 10, 3-(tert-butyl)-N-(4-(5-(4-(1-((1-(4-(2,4-dioxotetrahydropyrimidin-1(2H)-yl)phenyl)piperidin-4-yl)methyl)piperidin-4-yl)phenyl)-1H-pyrazolo[3,4-b]pyridin-3-yl)-2-fluorobenzyl)-1,2,4-oxadiazole-5-carboxamide]
3.83		Cc1cc(-c2n[nH]c3ncc(-c4ccc(N5CCN(CCc6ccc(C7CCC(=O)NC7=O)c(Cl)c6)CC5)cc4)cc23)ccc1CNC(=O)c1noc(C(C)(C)C)n1 (stereo not shown) [Example 51, 5-(tert-butyl)-N-(4-(5-(4-(4-(3-chloro-4-(2,6-dioxopiperidin-3-yl)phenethyl)piperazin-1-yl)phenyl)-1H-pyrazolo[3,4-b]pyridin-3-yl)-2-methylbenzyl)-1,2,4-oxadiazole-3-carboxamide]
0.959		Cc1cc(-c2n[nH]c3ncc(-c4ccc(N5CCN(CCc6ccc(C7CCC(=O)NC7=O)cn6)CC5)cc4)cc23)ccc1[C@@H](C)NC(=O)c1noc(C(C)(C)C)n1 (stereo partly drawn) [Example 101, 5-(tert-butyl)-N-((1R)-1-(4-(5-(4-(4-(2-(5-(2,6-dioxopiperidin-3-yl)pyridin-2-yl)ethyl)piperazin-1-yl)phenyl)-1H-pyrazolo[3,4-b]pyridin-3-yl)-2-methylphenyl)ethyl)-1,2,4-oxadiazole-3-carboxamide]
11.8		Cc1cc(-c2n[nH]c3ncc(-c4ccc(N5CCN(Cc6ccc(C7CCC(=O)NC7=O)c(F)c6)CC5)cc4)cc23)ccc1[C@@H](C)NC(=O)c1nc(C(C)(C)C)no1 (stereo partly drawn) [Example 215, 3-(tert-butyl)-N-((1R)-1-(4-(5-(4-(4-(4-(2,6-dioxopiperidin-3-yl)-3-fluorobenzyl)piperazin-1-yl)phenyl)-1H-pyrazolo[3,4-b]pyridin-3-yl)-2-methylphenyl)ethyl)-1,2,4-oxadiazole-5-carboxamide]
> 2000		Cc1cc(-c2n[nH]c3ncc(-c4ccc(N5CC6CC5CN6CCc5ccc(N6CCC(=O)NC6=O)cc5)cn4)cc23)ccc1[C@@H](C)NC(=O)c1noc(C(C)(C)C)n1 (stereo partly drawn) [Example 132, 5-(tert-butyl)-N-((1R)-1-(4-(5-(5-(5-(4-(2,4-dioxotetrahydropyrimidin-1(2H)-yl)phenethyl)-2,5-diazabicyclo[2.2.1]heptan-2-yl)pyridin-2-yl)-1H-pyrazolo[3,4-b]pyridin-3-yl)-2-methylphenyl)ethyl)-1,2,4-oxadiazole-3-carboxamide]
10.5		Cc1cc(-c2n[nH]c3ncc(-c4ccc(N5CCN(C6CCC(c7ccc(C8CCC(=O)NC8=O)c(F)c7)C6)CC5)cc4)cc23)ccc1[C@@H](C)NC(=O)c1nc(C(C)(C)C)no1 (stereo partly drawn) [Example 216, 3-(tert-butyl)-N-((1R)-1-(4-(5-(4-(4-(3-(4-(2,6-dioxopiperidin-3-yl)-3-fluorophenyl)cyclopentyl)piperazin-1-yl)phenyl)-1H-pyrazolo[3,4-b]pyridin-3-yl)-2-methylphenyl)ethyl)-1,2,4-oxadiazole-5-carboxamide]
1.42		Cc1cc(-c2n[nH]c3ncc(-c4ccc(N5CCN(CC6CCN(c7ccc(N8CCC(=O)NC8=O)cn7)CC6)CC5)cc4)cc23)ccc1[C@@H](C)NC(=O)c1noc(C(C)(C)C)n1 [Example 124, (R)-5-(tert-butyl)-N-(1-(4-(5-(4-(4-((1-(5-(2,4-dioxotetrahydropyrimidin-1(2H)-yl)pyridin-2-yl)piperidin-4-yl)methyl)piperazin-1-yl)phenyl)-1H-pyrazolo[3,4-b]pyridin-3-yl)-2-methylphenyl)ethyl)-1,2,4-oxadiazole-3-carboxamide]
